The target in the assay is Serine/threonine-protein kinase PLK1 (Homo sapiens) (UniProt P53350). Kind of assay: PLK1 polo-box domain peptide-binding inhibitors, SAR follow-up, biochemical, fluorescence polarization, purchased analogs, concentration response (AID 1083). To be noted: Plk1 PBD peptide binding.

Values joined by “and” are separate entries in the source; they are usually repeats but may differ in a detail not shown here. Identical values can stand only once. Active and inactive are the calls of the source. No rule for the calls is given here.

Sequence of Serine/threonine-protein kinase PLK1 (Homo sapiens) (P53350 whole entry, looked up, the tested form may be a part): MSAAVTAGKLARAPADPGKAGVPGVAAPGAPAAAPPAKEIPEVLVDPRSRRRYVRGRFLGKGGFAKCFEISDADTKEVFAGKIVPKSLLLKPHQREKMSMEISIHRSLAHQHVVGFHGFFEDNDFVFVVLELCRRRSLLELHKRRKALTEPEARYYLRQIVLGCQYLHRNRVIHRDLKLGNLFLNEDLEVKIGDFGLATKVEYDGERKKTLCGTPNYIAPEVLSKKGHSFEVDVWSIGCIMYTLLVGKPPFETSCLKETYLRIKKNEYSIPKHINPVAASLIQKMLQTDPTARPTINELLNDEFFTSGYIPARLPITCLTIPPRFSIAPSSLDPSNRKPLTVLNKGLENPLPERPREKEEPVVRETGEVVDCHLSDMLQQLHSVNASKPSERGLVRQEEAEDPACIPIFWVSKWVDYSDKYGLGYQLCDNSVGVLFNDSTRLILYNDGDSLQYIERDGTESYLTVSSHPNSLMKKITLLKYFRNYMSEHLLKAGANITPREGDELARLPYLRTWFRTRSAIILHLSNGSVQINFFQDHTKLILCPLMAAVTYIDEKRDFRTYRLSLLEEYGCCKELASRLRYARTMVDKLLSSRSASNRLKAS

In the case of `CC(=O)c1ccc(N(CN2C(=O)c3ccc([N+](=O)[O-])cc3C2=O)C(C)=O)cc1`, the IC50 was > 50 µM (inactive).
The value for `COc1ccc(C(=O)COC(=O)c2ccc(NC(=O)c3ccccc3)cc2)cc1` was > 50 µM (inactive); that for `Cn1c(O)c(C(=O)c2ccccc2Cl)c(=O)n(C)c1=O` was > 50 µM (inactive); that for `CCN(CC)CCOC(=O)c1ccc(N=Cc2c(O)n(Cc3ccccc3)c(=O)[nH]c2=O)cc1` was > 50 µM (inactive).
Then `CCOC(=O)c1ccc(N=Cc2c(O)n(-c3cccc(C)c3)c(=O)[nH]c2=O)cc1`, with > 50 µM (inactive); and `CCCCCC(=O)N(CN1C(=O)c2ccccc2C1=O)c1cccc(C(=O)O)c1`, with > 50 µM (inactive).
The value for `COc1ccc(N(CN2C(=O)c3ccccc3C2=O)C(=O)C(F)(F)F)cc1` was > 50 µM (inactive); that for `CCOC(=O)c1ccc(N=Cc2c(O)n(Cc3ccc4c(c3)OCO4)c(=O)[nH]c2=O)cc1` was > 50 µM (inactive); that for `CC(=O)N(CN1C(=O)c2ccccc2C1=O)c1ccc(F)cc1` was > 50 µM (inactive).
For `COC(=O)c1ccc(NC(=O)c2cc(-c3ccc(C)o3)nc3ccccc23)cc1`, the IC50 was > 50 µM (inactive).
The value for `CCOC(=O)c1ccc(N=Cc2c(O)n(-c3ccc(C)cc3)c(=O)[nH]c2=O)cc1` was > 50 µM (inactive); that for `CCCCCCC(=O)N(CN1C(=O)c2ccccc2C1=O)c1ccc(OCc2ccccc2)cc1` was > 50 µM (inactive); that for `CCN(CC)CCOC(=O)c1ccc(N=Cc2c(O)[nH]c(=O)[nH]c2=O)cc1` was > 50 µM (inactive).
The value for `O=C1NC(=O)C(=Cc2c3ccccc3cc3ccccc23)C(=O)N1` was > 50 µM (inactive).
The value for `CCn1nc(-c2ccccc2C)nc2c(=O)n(C)c(=O)nc1-2` was 0.636 µM and 5.67 µM; that for `Cn1c(=O)[nH]c2nnc(-c3ccc(Cl)cc3)nc2c1=O` was > 50 µM (inactive).
On to `Cc1ccccc1-c1nnc2[nH]c(=O)n(C)c(=O)c2n1`, for which the IC50 was > 50 µM (inactive).
Then `COc1cc(C=C2C(=O)NC(=O)NC2=O)cc(Cl)c1O`, with > 50 µM (inactive); and `O=c1cc[nH]c2cc(N3CCOCC3)c(F)cc12`, with > 50 µM (inactive).
The value for `CCOC(=O)c1ccc(NC(=O)C23CC4CC(CC(C4)C2)C3)cc1` was > 50 µM (inactive); that for `CCCOC(=O)c1ccc(NC(=O)c2cc(-c3cccs3)nc3c(C)c(Cl)ccc23)cc1` was > 50 µM (inactive); that for `CCOC(=O)c1ccc(N=C(c2ccccc2)c2c(O)n(C)c(=O)n(C)c2=O)cc1` was > 50 µM (inactive).
The value for `CCOC(=O)c1ccc(NC(=O)C2CC(=O)N=C(N)S2)cc1` (configuration not stated) was > 50 µM (inactive); that for `Cn1c(=O)c2nc(-c3ccccc3)c(-c3ccccc3)nc2n(C)c1=O` was > 50 µM (inactive); that for `CC(=O)N(/N=C1\Sc2ccccc2C1=O)c1ccc(C)cc1C` was > 50 µM (inactive).
`CC(=O)N(CN1C(=O)c2ccccc2C1=O)c1ccc(C)cc1`: the IC50 was > 50 µM (inactive).
For `CCOc1cc(-c2nnc3[nH]c(=O)n(C)c(=O)c3n2)ccc1OC(C)C`, the IC50 is 28.9 µM.
The value for `CCOC(=O)c1ccc(NC(=O)c2c(C)cc(=O)oc2C)cc1` was > 50 µM (inactive); that for `CC(=O)Oc1c(Cl)c(N2CCOCC2)c(OC(C)=O)c2ccccc12` was > 50 µM (inactive); that for `CCCCOC(=O)c1ccc(N=Cc2c(O)[nH]c(=O)[nH]c2=O)cc1` was > 50 µM (inactive).
`CC(=O)N(CN1C(=O)c2ccccc2C1=O)c1cccc(F)c1`: the IC50 is > 50 µM (inactive).
Then `COc1ccc(N(CN2C(=O)c3cc(Cl)c(Cl)cc3C2=O)C(C)=O)cc1`, with > 50 µM (inactive).
Then `CC(=O)N(CN1C(=O)c2ccccc2C1=O)c1cccc(C)c1`, with > 50 µM (inactive).
The value for `COc1ccc(N(/N=C2\Sc3ccccc3C2=O)C(C)=O)cc1` was 15.2 µM.
On to `CCOC(=O)c1ccc(NC(=O)c2ccc3snnc3c2)cc1`, for which the IC50 is > 50 µM (inactive).
Then `CCOC(=O)c1ccc(N=Cc2c(O)n(Cc3ccccc3Cl)c(=O)[nH]c2=O)cc1`, with > 50 µM (inactive); and `CC(=O)Oc1ccccc1N(/C=C1\Sc2ccccc2C1=O)C(C)=O`, with > 50 µM (inactive).
